According to patent US9833455B2, “Preparation and methods of use for ortho-aryl 5-membered heteroaryl-carboxamide containing multi-targeted kinase inhibitors” (Spacefill Enterprises LLC, priority 2011, dated 2017):
Like-named read-outs stand apart in the source and are kept apart here.

How the values were obtained:
BRAF = target: T1, BRAF (Homo sapiens, UniProt P15056); assay: Reaction Biology P33 radiolabeled kinase assay, IC50 and time dependence; format: biochemical; conditions: for IC50: ATP 10 uM, read-out: Compound IC50* BRAF
T1 construct: literature Ambit Biosciences
T1 sequence (P15056 whole entry): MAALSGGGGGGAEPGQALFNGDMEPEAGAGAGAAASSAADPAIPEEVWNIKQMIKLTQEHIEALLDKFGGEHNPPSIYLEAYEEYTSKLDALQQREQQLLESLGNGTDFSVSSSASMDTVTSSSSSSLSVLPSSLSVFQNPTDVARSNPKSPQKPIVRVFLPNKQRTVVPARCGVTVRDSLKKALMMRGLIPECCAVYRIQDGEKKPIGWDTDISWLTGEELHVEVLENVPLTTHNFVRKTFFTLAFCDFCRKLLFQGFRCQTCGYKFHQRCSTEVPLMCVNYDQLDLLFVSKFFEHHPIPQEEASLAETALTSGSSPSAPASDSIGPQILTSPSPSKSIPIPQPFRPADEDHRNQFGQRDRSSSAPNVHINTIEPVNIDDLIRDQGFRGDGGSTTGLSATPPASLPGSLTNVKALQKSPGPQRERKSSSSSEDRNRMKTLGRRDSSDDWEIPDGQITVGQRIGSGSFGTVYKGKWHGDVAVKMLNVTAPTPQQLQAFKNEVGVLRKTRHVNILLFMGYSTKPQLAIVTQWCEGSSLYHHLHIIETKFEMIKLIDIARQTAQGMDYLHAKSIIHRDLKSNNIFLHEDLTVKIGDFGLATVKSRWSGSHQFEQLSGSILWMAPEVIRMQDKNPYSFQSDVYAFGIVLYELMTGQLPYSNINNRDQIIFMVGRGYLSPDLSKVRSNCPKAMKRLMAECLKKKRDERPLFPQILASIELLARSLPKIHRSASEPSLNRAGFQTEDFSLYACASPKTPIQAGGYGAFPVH
Procedure: (§1) “Inhibiting kinase activity” means to decrease the production of an phosphor-peptide by a particular kinase that can be separated by analytical techniques. For example, a comprehensive platform of kinase, protease, phosphatase and epigenetic assays that utilizes cutting-edge microfluidics and informatics tools to provide accurate and rapid results. Profiling data in this application were determined using these techniques at Nanosyn Inc. IC50 data were provided by Reaction Biology Inc using a P33 radiolabeled kinase assay.
(§2) The observation of potency and isoform selectivity with time-dependency for PI3K-γ appears to be unprecedented in the literature. In addition, these activities combined with inhibition of p38-α, Raf-1, DDR and CSF-1R, would be complimentary and potentially synergistic activities for both the treatment of certain inflammation based conditions and cancers.

RAF1 = target: T2, RAF1 (Homo sapiens, UniProt P04049); assay: as above; format: biochemical; conditions: for IC50: ATP 10 uM, read-out: Compound IC50* RAF1
T2 construct: literature Ambit Biosciences
T2 sequence (P04049 whole entry): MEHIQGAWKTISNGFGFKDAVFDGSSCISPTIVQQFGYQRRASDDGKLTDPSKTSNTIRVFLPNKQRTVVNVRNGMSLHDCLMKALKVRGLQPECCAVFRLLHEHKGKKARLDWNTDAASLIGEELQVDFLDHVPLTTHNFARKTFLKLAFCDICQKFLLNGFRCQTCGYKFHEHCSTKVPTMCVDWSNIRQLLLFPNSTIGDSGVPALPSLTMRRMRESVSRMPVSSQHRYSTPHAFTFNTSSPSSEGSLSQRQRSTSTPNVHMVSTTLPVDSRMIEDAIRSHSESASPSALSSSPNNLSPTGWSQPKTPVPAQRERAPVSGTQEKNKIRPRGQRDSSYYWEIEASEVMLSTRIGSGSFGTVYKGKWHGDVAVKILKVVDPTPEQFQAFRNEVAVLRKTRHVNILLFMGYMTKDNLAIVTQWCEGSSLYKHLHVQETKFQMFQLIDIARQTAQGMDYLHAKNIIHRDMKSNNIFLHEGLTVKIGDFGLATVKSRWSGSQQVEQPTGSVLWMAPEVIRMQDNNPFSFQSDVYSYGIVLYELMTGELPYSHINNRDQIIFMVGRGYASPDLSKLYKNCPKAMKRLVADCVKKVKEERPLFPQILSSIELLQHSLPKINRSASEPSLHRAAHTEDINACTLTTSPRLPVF
Procedure: as §1, §2

PI3K-δ = target: T3, PI3K-δ (Homo sapiens, UniProt O00329); assay: as above; format: biochemical; conditions: for IC50: ATP 10 uM, read-out: Compound IC50* PI3K-δ
T3 construct: purchased Reaction Biology Inc (contract assay)
Procedure: as §1, §2

P38a/MAPK14 = target: T4, P38a/MAPK14 (Homo sapiens, UniProt Q16539); assay: as above; format: biochemical; conditions: for IC50: ATP 10 uM, read-out: Compound IC50* P38a/MAPK14
T4 construct: purchased Reaction Biology Inc (contract assay)
T4 sequence (Q16539 whole entry): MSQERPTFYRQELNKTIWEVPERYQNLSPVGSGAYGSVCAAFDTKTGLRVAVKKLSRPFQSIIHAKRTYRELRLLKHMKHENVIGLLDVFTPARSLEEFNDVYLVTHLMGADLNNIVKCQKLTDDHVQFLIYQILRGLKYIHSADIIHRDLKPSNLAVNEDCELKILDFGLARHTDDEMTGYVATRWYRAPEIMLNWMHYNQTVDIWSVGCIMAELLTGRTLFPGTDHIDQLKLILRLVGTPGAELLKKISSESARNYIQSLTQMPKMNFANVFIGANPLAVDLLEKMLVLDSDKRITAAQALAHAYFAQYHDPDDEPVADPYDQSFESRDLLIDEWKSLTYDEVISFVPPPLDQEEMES
Procedure: as §1, §2

PI3K-β = target: T5, PI3K-β (Homo sapiens, UniProt P42338); assay: as above; format: biochemical; conditions: for IC50: ATP 10 uM, read-out: Compound IC50* PI3K-β
T5 construct: purchased Reaction Biology Inc (contract assay)
T5 sequence (P42338 whole entry): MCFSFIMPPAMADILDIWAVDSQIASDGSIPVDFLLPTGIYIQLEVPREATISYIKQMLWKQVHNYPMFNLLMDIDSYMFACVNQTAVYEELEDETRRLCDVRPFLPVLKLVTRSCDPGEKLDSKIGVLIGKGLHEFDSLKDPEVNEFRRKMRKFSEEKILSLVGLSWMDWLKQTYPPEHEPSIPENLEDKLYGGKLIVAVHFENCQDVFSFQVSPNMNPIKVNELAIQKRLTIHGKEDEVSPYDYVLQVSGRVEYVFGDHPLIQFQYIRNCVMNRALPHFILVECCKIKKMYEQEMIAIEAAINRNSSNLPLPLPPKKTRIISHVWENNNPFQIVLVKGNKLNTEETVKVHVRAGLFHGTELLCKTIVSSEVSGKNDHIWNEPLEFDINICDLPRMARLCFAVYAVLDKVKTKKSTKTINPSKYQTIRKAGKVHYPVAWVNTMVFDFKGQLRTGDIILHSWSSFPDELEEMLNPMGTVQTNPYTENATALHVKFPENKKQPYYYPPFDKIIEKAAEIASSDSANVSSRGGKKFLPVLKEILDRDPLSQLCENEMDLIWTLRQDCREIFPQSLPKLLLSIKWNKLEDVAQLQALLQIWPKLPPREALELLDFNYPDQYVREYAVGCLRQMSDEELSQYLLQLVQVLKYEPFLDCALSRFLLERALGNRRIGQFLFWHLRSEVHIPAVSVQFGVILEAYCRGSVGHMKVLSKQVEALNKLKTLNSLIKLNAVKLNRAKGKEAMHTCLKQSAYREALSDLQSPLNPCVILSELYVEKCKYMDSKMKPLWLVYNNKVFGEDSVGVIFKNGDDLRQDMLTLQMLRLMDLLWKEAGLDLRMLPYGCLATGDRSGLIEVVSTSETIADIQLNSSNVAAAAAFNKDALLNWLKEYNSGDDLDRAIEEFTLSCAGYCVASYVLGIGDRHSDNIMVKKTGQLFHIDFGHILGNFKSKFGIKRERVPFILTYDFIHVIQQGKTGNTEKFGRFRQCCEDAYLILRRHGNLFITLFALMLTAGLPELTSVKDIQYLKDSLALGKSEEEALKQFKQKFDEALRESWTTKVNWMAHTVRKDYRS
T5 sequence (P27986 whole entry partner): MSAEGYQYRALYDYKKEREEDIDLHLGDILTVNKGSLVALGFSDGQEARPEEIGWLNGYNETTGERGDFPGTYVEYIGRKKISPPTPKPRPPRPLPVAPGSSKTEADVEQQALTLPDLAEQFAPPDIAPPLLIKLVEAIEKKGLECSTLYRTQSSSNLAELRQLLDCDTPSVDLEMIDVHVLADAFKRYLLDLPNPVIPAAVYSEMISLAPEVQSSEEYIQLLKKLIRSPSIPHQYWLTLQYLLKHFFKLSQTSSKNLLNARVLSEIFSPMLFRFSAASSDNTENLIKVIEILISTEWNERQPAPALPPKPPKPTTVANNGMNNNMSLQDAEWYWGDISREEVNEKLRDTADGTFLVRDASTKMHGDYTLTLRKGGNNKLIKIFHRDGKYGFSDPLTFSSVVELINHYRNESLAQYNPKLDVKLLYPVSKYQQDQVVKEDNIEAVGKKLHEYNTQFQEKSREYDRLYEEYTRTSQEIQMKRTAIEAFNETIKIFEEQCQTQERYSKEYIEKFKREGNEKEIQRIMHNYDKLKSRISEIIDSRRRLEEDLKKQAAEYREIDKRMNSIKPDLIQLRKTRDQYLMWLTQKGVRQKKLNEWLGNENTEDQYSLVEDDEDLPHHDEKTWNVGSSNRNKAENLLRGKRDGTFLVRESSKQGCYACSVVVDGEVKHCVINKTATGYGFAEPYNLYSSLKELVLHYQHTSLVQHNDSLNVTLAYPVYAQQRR
Procedure: as §1, §2

ARAF = target: T6, ARAF (Homo sapiens, UniProt P10398); assay: as above; format: biochemical; conditions: for IC50: ATP 10 uM, read-out: Compound IC50* ARAF
T6 construct: purchased Reaction Biology Inc (contract assay)
T6 sequence (P10398 1-606): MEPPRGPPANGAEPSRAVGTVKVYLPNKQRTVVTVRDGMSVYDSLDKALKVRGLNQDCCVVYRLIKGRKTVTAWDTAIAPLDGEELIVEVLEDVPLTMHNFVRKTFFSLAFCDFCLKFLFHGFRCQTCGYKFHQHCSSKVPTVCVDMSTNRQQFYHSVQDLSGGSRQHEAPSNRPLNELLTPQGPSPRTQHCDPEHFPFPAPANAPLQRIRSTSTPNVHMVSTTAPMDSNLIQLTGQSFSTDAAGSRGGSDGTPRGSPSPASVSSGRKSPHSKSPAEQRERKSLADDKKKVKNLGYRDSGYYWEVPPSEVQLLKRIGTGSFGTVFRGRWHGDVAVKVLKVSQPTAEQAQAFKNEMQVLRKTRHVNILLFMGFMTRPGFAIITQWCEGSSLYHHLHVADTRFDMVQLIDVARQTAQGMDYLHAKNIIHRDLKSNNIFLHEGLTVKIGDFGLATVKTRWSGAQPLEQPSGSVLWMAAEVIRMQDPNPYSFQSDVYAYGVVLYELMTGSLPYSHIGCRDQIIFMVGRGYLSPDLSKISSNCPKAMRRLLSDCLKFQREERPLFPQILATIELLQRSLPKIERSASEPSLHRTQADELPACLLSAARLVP
Procedure: as §1, §2

PDGFR-α = PDGFR-α (Homo sapiens, UniProt P16234); assay: as above; format: biochemical; conditions: for IC50: ATP 10 uM, read-out: Compound IC50* PDGFR-α
PDGFR-α, sequence (P16234 24-1089): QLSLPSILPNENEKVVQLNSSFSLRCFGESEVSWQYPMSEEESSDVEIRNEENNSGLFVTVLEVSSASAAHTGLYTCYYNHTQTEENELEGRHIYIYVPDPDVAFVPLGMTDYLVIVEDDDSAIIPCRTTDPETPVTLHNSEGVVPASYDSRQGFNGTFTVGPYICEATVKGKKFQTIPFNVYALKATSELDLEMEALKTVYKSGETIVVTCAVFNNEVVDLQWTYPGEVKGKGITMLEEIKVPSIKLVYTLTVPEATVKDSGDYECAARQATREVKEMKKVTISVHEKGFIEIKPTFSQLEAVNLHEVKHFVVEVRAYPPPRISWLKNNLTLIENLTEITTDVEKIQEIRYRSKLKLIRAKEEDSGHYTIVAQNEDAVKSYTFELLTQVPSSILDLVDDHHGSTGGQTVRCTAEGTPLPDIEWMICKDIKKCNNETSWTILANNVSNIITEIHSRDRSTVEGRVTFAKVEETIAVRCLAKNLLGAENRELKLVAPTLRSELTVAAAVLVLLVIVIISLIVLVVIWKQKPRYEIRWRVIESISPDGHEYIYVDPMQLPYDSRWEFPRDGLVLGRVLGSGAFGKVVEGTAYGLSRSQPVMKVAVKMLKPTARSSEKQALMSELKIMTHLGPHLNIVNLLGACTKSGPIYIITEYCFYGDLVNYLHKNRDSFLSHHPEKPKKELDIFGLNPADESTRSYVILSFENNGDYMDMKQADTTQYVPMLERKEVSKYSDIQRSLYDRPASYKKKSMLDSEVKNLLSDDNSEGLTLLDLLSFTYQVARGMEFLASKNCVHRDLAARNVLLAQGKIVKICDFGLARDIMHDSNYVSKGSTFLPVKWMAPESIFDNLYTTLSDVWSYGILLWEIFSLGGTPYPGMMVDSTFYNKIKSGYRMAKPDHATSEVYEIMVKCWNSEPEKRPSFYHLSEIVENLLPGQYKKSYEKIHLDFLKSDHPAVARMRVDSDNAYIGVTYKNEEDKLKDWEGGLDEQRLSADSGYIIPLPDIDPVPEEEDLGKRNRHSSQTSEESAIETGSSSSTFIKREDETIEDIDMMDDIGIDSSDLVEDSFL
Procedure: as §1, §2

CDK11 = target: T7, CDK11 (Homo sapiens, UniProt Q9BWU1); conditions: 1 μM, duplicate, without preincubation; cited from earlier work
T7 construct: literature Ambit Biosciences

RIOK2 = target: T8, RIOK2 (Homo sapiens, UniProt Q9BVS4); conditions: 1 μM, duplicate, without preincubation; cited from earlier work
T8 construct: literature Ambit Biosciences

EGFR = target: T9, EGFR (Homo sapiens, UniProt P00533); conditions: 1 μM, duplicate, without preincubation; cited from earlier work
T9 construct: literature Ambit Biosciences

BRAF(V600E) = BRAF(V600E) (Homo sapiens, UniProt P15056, V600E); assay: LanthaScreen assay, side by side IC50 comparison; format: biochemical; conditions: LanthaScreen assay, side by side comparison
BRAF(V600E), sequence (P15056 whole entry V600E): as the sequence (P15056 whole entry) above, with V600E counted along it
Procedure: To test both our binding mode hypothesis and to see if these structural differences could be taken exploited to impart selectivity and potency improvements, I-13, in which the lipophilic 2-trifluoromethy substituent on imidazole ring of inhibitor KIN-035, was replaced by the polar 2-methylsulfonyl substitutent. […] To address this issue, real time kinetic experiments were performed.

DCAMKL1 = target: T10, DCAMKL1 (Homo sapiens, UniProt O15075); conditions: 1 μM, duplicate, without preincubation; cited from earlier work
T10 construct: literature Ambit Biosciences
T10 sequence (O15075 1-740): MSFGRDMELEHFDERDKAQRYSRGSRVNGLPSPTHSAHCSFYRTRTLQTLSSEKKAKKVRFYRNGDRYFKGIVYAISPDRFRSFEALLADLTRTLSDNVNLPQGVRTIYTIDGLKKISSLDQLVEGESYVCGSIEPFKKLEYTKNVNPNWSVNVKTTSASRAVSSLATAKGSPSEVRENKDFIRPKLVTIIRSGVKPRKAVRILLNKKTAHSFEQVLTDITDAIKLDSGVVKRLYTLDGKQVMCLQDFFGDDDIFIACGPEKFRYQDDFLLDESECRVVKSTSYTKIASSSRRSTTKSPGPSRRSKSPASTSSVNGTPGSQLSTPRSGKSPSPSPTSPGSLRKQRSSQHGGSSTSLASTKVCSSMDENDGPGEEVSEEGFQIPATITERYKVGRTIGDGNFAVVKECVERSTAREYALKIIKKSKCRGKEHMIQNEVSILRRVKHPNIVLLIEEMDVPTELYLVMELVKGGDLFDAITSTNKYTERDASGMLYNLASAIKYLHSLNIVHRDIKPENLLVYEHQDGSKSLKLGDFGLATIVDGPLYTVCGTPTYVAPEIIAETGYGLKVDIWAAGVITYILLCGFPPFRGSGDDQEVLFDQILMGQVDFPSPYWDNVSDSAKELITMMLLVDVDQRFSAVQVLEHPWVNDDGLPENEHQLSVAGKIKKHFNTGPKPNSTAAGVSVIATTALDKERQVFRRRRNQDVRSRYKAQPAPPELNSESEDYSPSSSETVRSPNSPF

ERBB4 = target: T11, ERBB4 (Homo sapiens, UniProt Q15303); conditions: 1 μM, duplicate, without preincubation; cited from earlier work
T11 construct: literature Ambit Biosciences

EGFR(L858R) = target: T12, EGFR(L858R) (Homo sapiens, UniProt P00533, L858R); conditions: 1 μM, duplicate, without preincubation; cited from earlier work
T12 construct: literature Ambit Biosciences

BMPR2 = target: T13, BMPR2 (Homo sapiens, UniProt Q13873); conditions: 1 μM, duplicate, without preincubation; cited from earlier work
T13 construct: literature Ambit Biosciences

IKK-alpha = target: T14, IKK-alpha (Homo sapiens, UniProt O15111); conditions: 1 μM, duplicate, without preincubation; cited from earlier work
T14 construct: literature Ambit Biosciences

Structure (SMILES): Cc1ccc(NC(=O)c2nc(S(C)(=O)=O)[nH]c2-c2ccc(F)cc2)cc1Nc1nccc(-c2cccnc2)n1 [Inhibitor I-14, 3-(4-(pyridin-3-yl)-pyrimidinyl-2-yl)amino-4-methyl-analine, 5-(4-Fluorophenyl)-2-(methylsulfonyl)-1H-imidazole-4-carboxamide]
- Time Dependence Observed? BRAF (BRAF; 15 vs 60 Min preincubation): Yes
- IC50 (BRAF; preincubation 15 Min): 388 nM
- IC50 (BRAF; preincubation 60 Min): 323 nM
- Time Dependence Observed? RAF1 (RAF1; 15 vs 60 Min preincubation): Yes
- IC50 (RAF1; preincubation 15 Min): 96.5 nM
- IC50 (RAF1; preincubation 60 Min): 81.3 nM
- Time Dependence Observed? PI3K-δ (PI3K-δ; 15 vs 60 Min preincubation): Yes
- IC50 (PI3K-δ; preincubation 15 Min): 3180 nM
- IC50 (PI3K-δ; preincubation 60 Min): 1120 nM
- Time Dependence Observed? P38a/MAPK14 (P38a/MAPK14; 15 vs 60 Min preincubation): No
- IC50 (P38a/MAPK14; preincubation 15 Min): 150 nM
- IC50 (P38a/MAPK14; preincubation 60 Min): 150 nM
- Time Dependence Observed? PI3K-β (PI3K-β; 15 vs 60 Min preincubation): Yes
- IC50 (PI3K-β; preincubation 15 Min): 12600 nM
- IC50 (PI3K-β; preincubation 60 Min): 2910 nM
- Time Dependence Observed? ARAF (ARAF; 15 vs 60 Min preincubation): Yes
- IC50 (ARAF; preincubation 15 Min): 1390 nM
- IC50 (ARAF; preincubation 60 Min): 1300 nM
- Time Dependence Observed? PDGFR-α (PDGFR-α; 15 vs 60 Min preincubation): No
- IC50 (PDGFR-α; preincubation 15 Min): 178 nM
- IC50 (PDGFR-α; preincubation 60 Min): 342 nM

Structure (SMILES): Cc1ccc(NC(=O)c2[nH]c(C(F)(F)F)nc2-c2ccc(F)cc2)cc1Nc1ccc2ncn(C)c(=O)c2c1 [KIN-035]
- inhibition of CDK11 (CDK11): XX (XX > 50% @ 1 μM)
- inhibition of RIOK2 (RIOK2): X (X > 25% @ 1 μM)
- inhibition of EGFR (EGFR): X (X > 25% @ 1 μM)
- IC50 (BRAF(V600E)): 67 nM
- inhibition of DCAMKL1 (DCAMKL1): X (X > 25% @ 1 μM)
- inhibition of ERBB4 (ERBB4): X (X > 25% @ 1 μM)
- inhibition of EGFR(L858R) (EGFR(L858R)): X (X > 25% @ 1 μM)

Structure (SMILES): Cc1ccc(-c2nc(C(F)(F)F)[nH]c2C(=O)Nc2ccc(C)c(Nc3ccc4ncn(C)c(=O)c4c3)c2)cc1F [KIN-038]
- inhibition of CDK11 (CDK11): X (X > 25% @ 1 μM)
- inhibition of RIOK2 (RIOK2): X (X > 25% @ 1 μM)
- inhibition of BMPR2 (BMPR2): X (X > 25% @ 1 μM)
- inhibition of DCAMKL1 (DCAMKL1): X (X > 25% @ 1 μM)
- inhibition of IKK-alpha (IKK-alpha): X (X > 25% @ 1 μM)
